± gives the expanded uncertainty stated by the source.
Details: 283.14 K, Liquid, Vibrating tube method

Structure (SMILES): CCCCCCC(=O)OCC(COC(=O)CCCCCC)(COC(=O)CCCCCC)COC(=O)CCCCCC [pentaerythritol tetraheptanoate]
- mass density (8943.7 kPa): 991 ± 1.2 kg/m3
- mass density (8967.5 kPa): 991 ± 1.2 kg/m3
- mass density (8987.8 kPa): 991 ± 1.2 kg/m3
- mass density (9012.5 kPa): 991 ± 1.2 kg/m3
- mass density (9033.2 kPa): 991 ± 1.2 kg/m3
- mass density (9051.6 kPa): 991 ± 1.2 kg/m3
- mass density (9069.4 kPa): 991.1 ± 1.2 kg/m3
- mass density (9088.3 kPa): 991.2 ± 1.2 kg/m3
- mass density (9103.3 kPa): 991.1 ± 1.2 kg/m3
- mass density (9118.5 kPa): 991 ± 1.2 kg/m3
- mass density (9136.4 kPa): 991.1 ± 1.2 kg/m3
- mass density (9152.5 kPa): 991.2 ± 1.2 kg/m3
- mass density (9168 kPa): 991 ± 1.2 kg/m3
- mass density (9183.2 kPa): 991.1 ± 1.2 kg/m3
- mass density (9198.7 kPa): 991.1 ± 1.2 kg/m3
- mass density (9217 kPa): 991.1 ± 1.2 kg/m3
- mass density (9232.5 kPa): 991.1 ± 1.2 kg/m3
- mass density (9248.5 kPa): 991.2 ± 1.2 kg/m3
- mass density (9267.1 kPa): 991.1 ± 1.2 kg/m3
- mass density (9282.6 kPa): 991.2 ± 1.2 kg/m3
- mass density (9298.5 kPa): 991.2 ± 1.2 kg/m3
- mass density (9317.3 kPa): 991.3 ± 1.2 kg/m3
- mass density (9333.1 kPa): 991.2 ± 1.2 kg/m3
- mass density (9348.8 kPa): 991.2 ± 1.2 kg/m3
- mass density (9368.1 kPa): 991.1 ± 1.2 kg/m3
- mass density (9382 kPa): 991.2 ± 1.2 kg/m3
- mass density (9401.3 kPa): 991.2 ± 1.2 kg/m3
- mass density (9417.4 kPa): 991.2 ± 1.2 kg/m3
- mass density (9436.7 kPa): 991.3 ± 1.2 kg/m3
- mass density (9452.9 kPa): 991.4 ± 1.2 kg/m3
- mass density (9468.9 kPa): 991.2 ± 1.2 kg/m3
- mass density (9485.1 kPa): 991.2 ± 1.2 kg/m3
- mass density (9504.9 kPa): 991.3 ± 1.2 kg/m3
- mass density (9521.4 kPa): 991.3 ± 1.2 kg/m3
- mass density (9538.2 kPa): 991.1 ± 1.2 kg/m3
- mass density (9557.6 kPa): 991.3 ± 1.2 kg/m3
- mass density (9574.2 kPa): 991.5 ± 1.2 kg/m3
- mass density (9594.2 kPa): 991.3 ± 1.2 kg/m3
- mass density (9610.7 kPa): 991.3 ± 1.2 kg/m3
- mass density (9644.3 kPa): 991.4 ± 1.2 kg/m3
- mass density (9664.8 kPa): 991.3 ± 1.2 kg/m3
- mass density (9681.7 kPa): 991.4 ± 1.2 kg/m3
- mass density (9698.7 kPa): 991.4 ± 1.2 kg/m3
- mass density (9719.2 kPa): 991.4 ± 1.2 kg/m3
- mass density (9736.6 kPa): 991.4 ± 1.2 kg/m3
- mass density (9771.3 kPa): 991.5 ± 1.2 kg/m3
- mass density (9792.1 kPa): 991.4 ± 1.2 kg/m3
- mass density (9809.7 kPa): 991.5 ± 1.2 kg/m3
- mass density (9845.5 kPa): 991.4 ± 1.2 kg/m3
- mass density (9866.9 kPa): 991.4 ± 1.2 kg/m3
- mass density (9884.8 kPa): 991.4 ± 1.2 kg/m3
- mass density (9902.5 kPa): 991.6 ± 1.2 kg/m3
- mass density (9923.9 kPa): 991.5 ± 1.2 kg/m3
- mass density (9942.1 kPa): 991.6 ± 1.2 kg/m3
- mass density (9960.2 kPa): 991.5 ± 1.2 kg/m3
- mass density (9978.3 kPa): 991.6 ± 1.2 kg/m3
- mass density (9999.8 kPa): 991.7 ± 1.2 kg/m3
- mass density (10018 kPa): 991.6 ± 1.2 kg/m3
- mass density (10037 kPa): 991.5 ± 1.2 kg/m3
- mass density (10059 kPa): 991.6 ± 1.2 kg/m3
- mass density (10078 kPa): 991.6 ± 1.2 kg/m3
- mass density (10096 kPa): 991.5 ± 1.2 kg/m3
- mass density (10114 kPa): 991.8 ± 1.2 kg/m3
- mass density (10137 kPa): 991.6 ± 1.2 kg/m3
- mass density (10156 kPa): 991.6 ± 1.2 kg/m3
- mass density (10174 kPa): 991.6 ± 1.2 kg/m3
- mass density (10197 kPa): 991.7 ± 1.2 kg/m3
- mass density (10216 kPa): 991.6 ± 1.2 kg/m3
- mass density (10239 kPa): 991.8 ± 1.2 kg/m3
- mass density (10258 kPa): 991.7 ± 1.2 kg/m3
- mass density (10277 kPa): 991.6 ± 1.2 kg/m3
- mass density (10296 kPa): 991.7 ± 1.2 kg/m3
- mass density (10319 kPa): 991.7 ± 1.2 kg/m3
- mass density (10339 kPa): 991.8 ± 1.2 kg/m3
- mass density (10359 kPa): 991.8 ± 1.2 kg/m3
- mass density (10382 kPa): 991.8 ± 1.2 kg/m3
- mass density (10401 kPa): 991.8 ± 1.2 kg/m3
- mass density (10425 kPa): 991.8 ± 1.2 kg/m3
- mass density (10445 kPa): 991.9 ± 1.2 kg/m3
- mass density (10465 kPa): 991.8 ± 1.2 kg/m3
- mass density (10485 kPa): 991.9 ± 1.2 kg/m3
- mass density (10509 kPa): 991.7 ± 1.2 kg/m3
- mass density (10529 kPa): 991.9 ± 1.2 kg/m3
- mass density (10549 kPa): 991.9 ± 1.2 kg/m3
- mass density (10574 kPa): 991.8 ± 1.2 kg/m3
- mass density (10595 kPa): 992 ± 1.2 kg/m3
- mass density (10615 kPa): 991.9 ± 1.2 kg/m3
- mass density (10640 kPa): 991.9 ± 1.2 kg/m3
- mass density (10661 kPa): 991.9 ± 1.2 kg/m3
- mass density (10682 kPa): 991.9 ± 1.2 kg/m3
- mass density (10706 kPa): 991.9 ± 1.2 kg/m3
- mass density (10727 kPa): 992 ± 1.2 kg/m3
- mass density (10748 kPa): 991.9 ± 1.2 kg/m3
- mass density (10770 kPa): 992 ± 1.2 kg/m3
- mass density (10795 kPa): 992 ± 1.2 kg/m3
- mass density (10816 kPa): 991.9 ± 1.2 kg/m3
- mass density (10842 kPa): 991.9 ± 1.2 kg/m3
- mass density (10863 kPa): 992 ± 1.2 kg/m3
- mass density (10886 kPa): 992.1 ± 1.2 kg/m3
- mass density (10909 kPa): 992 ± 1.2 kg/m3
- mass density (10931 kPa): 992 ± 1.2 kg/m3
- mass density (10957 kPa): 992.1 ± 1.2 kg/m3
- mass density (10979 kPa): 992 ± 1.2 kg/m3
- mass density (11005 kPa): 992.2 ± 1.2 kg/m3
- mass density (11028 kPa): 992.2 ± 1.2 kg/m3
- mass density (11050 kPa): 992.2 ± 1.2 kg/m3
- mass density (11072 kPa): 992 ± 1.2 kg/m3
- mass density (11100 kPa): 992.1 ± 1.2 kg/m3
- mass density (11122 kPa): 992.2 ± 1.2 kg/m3
- mass density (11145 kPa): 992.2 ± 1.2 kg/m3
- mass density (11173 kPa): 992.1 ± 1.2 kg/m3
- mass density (11197 kPa): 992.2 ± 1.2 kg/m3

From the NIST ThermoML archive (doi:10.1021/je060271a)
